Results on 26 compounds are retold here after patent US5523314A, “Compounds useful as hypoglycemic agents and for treating Alzheimer's disease” (priority 1994, dated 1996).

Where two headings read alike, the source gives them in different places.

For one assay, the target named is T1, Human liver cathepsin D (Homo sapiens, UniProt P07339).
T1 construct: purchased Athens Research and Technology, Athens, Ga; host or cells: human liver
The assay is described as follows: Cathepsin D inhibition, fluorometric assay (Tables 5 and 6). To be noted: for inhibition at 10 µg/mL (stock): Compound Stock Concentration 10.0 μg/ml; for inhibition at 4.15 µg/mL (stock): Compound Stock Concentration 4.15 μg/ml; for inhibition at 8.3 µg/mL (stock): Compound Stock Concentration 8.3 μg/ml; for ability to inhibit cathepsin D: compared to structurally similar compounds known in the art, in words. The assay is classed as biochemical. As for the experimental part: Human liver cathepsin D (Athens Research and Technology, Athens, Ga.) was diluted in assay buffer, 200 mM NaOAc, pH 4.5, 150 mM NaCl to 500 ng/mL and then 100 μL of this cathepsin D solution was added to each well of a 96 well plate with the exception of control wells which received just 100 μL of assay buffer. […] Blank and enzyme control wells each received 5 μL of the DMSO vehicle.
After incubation at 37° C. for 30 minutes, cathepsin D activity was terminated by the addition of 100 μL per well of 400 mU/mL microsomal leucine aminopeptidase (EC 3.4.11.2, Sigma, St. Louis, Mo.) in 1M Tris-HCl, pH 8.0.
Following a two hour incubation at 37° C., to allow the aminopeptidase to release the fluorophore, 7-amido-4-methylcoumarin (AMC) from the products of cathepsin D cleavage, the plates were again analyzed in the fluorometer. In order to check for potential false positives, i.e., inhibitors of microsomal leucine aminopeptidase, residual aminopeptidase activity was monitored directly in each well by the addition of 20 μL/well of 2.5 mM Leu-pNA (Bachem Biosciences, Philadelphia, Pa.) in 10% DMSO.

For the next assay, the system named is blood glucose level. The assay is described as follows: Hypoglycemic activity in obese diabetic mice (Table 1). The assay is classed as in vivo, male viable yellow obese-diabetic mice. To be noted: Mus musculus, ip, 50 mg/kg, intraperitoneal. As for the experimental part:
The hypoglycemic activity of the compounds of the present invention was determined by testing the efficacy of the compounds in vivo in male viable yellow obese-diabetic mice. The test procedure is described in detail below.
Test formulations were prepared by dissolving the test compound in a saline solution containing 2% Emulphor (a polyoxyethylated vegetable oil surfactant from GAP Corp.) to provide the dose level desired. Each test formulation was administered to six viable yellow obese-diabetic mice intraperitoneally at the beginning of the experiment. Blood glucose levels were determined immediately before the first dose and at 2 and 4 hours thereafter using glucose oxidase. A mean was taken of the 6 values obtained before the first dose and at the 2 and 4 hour intervals. In Table 1, Column 1 provides the example number of the test compound, Column 2 provides the dose level of compound tested, and Columns 3 and 4 provide a measurement of the test animal's blood glucose level 2 and 4 hours after test compound administration, respectively, as a percentage of the test animal' s pre-administration blood glucose level.

[1] abbreviates: 2 h, 2 hrs, read-out: Percent of Initial Blood Glucose Level After 2 hrs.
Setting [2] is: 4 h, 4 hrs, read-out: Percent of Initial Blood Glucose Level After 4 hrs.

T1 sequence (P07339 169-412 limits assumed): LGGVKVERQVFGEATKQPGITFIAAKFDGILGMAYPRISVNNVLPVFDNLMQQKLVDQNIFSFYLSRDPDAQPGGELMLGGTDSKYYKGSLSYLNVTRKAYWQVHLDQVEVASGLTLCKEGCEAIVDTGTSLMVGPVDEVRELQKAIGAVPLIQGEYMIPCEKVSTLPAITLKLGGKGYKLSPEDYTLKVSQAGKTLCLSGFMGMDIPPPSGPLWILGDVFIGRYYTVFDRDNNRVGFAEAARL
T1 sequence (P07339 65-161 limits assumed): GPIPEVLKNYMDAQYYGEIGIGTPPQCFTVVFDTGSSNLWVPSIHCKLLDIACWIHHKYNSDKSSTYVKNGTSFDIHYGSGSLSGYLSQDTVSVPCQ

Regarding `CS(=O)(=O)Nc1cccc(C=C2SC(=S)NC2=O)c1` [Example 1, 5-[(3-methanesulfonamidophenyl)methylene]-2-thioxo-4-thiazolidinone], the inhibition at 10 µg/mL (stock) on Human liver cathepsin D was 36%. The response vs control in vivo at 50 mg/kg was 82 ± 5% in the assay with blood glucose level (setting [1]) and 75 ± 2% in the assay with blood glucose level (setting [2]).
`O=C1NC(=S)SC1=C(c1ccccc1)c1ccccc1` [Example 4, 5-(diphenylmethylene)-2-thioxo-4-thiazolidinone] displayed an inhibition at 10 µg/mL (stock) against Human liver cathepsin D of 50%. Also, the response vs control in vivo at 50 mg/kg with blood glucose level (setting [1]) is 91 ± 4%; with blood glucose level (setting [2]), 72 ± 7%.
On Human liver cathepsin D, `O=C1NC(=S)SC1=Cc1ccc(O)cc1` [Example 8, 5-[(4-hydroxyphenyl)methylene]-2-thioxo-4-thiazolidinone] returned an inhibition at 10 µg/mL (stock) of 64%. The response vs control in vivo at 50 mg/kg amounted to 94 ± 4% with blood glucose level (setting [1]) and 84 ± 6% in the assay with blood glucose level (setting [2]).
The like results for `COc1ccc(C=C2SC(=S)NC2=O)cc1` [Example 18, 5-[(4-methoxyphenyl)methylene]-2-thioxo-4-thiazolidinone] were, in that order, 38%, 89 ± 4% and 88 ± 5%.
The compound `COc1ccc(C(=C2SC(=S)NC2=O)c2ccccc2)cc1` [Example 21, 5-[(4-methoxyphenyl)phenylmethylene]-2-thioxo-4-thiazolidinone] registered an inhibition at 4.15 µg/mL (stock) against Human liver cathepsin D of 40%. Also, the response vs control in vivo at 50 mg/kg in the assay on blood glucose level (setting [1]) was 99 ± 4%; in the assay with blood glucose level (setting [2]) it was 81 ± 6%.
On to `CCOc1cc(C=C2SC(=S)NC2=O)cc(CSc2ccccc2)c1O` [Example 72], for which the IC50 against Human liver cathepsin D (50% inhibition of cathepsin D) turned out to be 1.7 µM. Moreover, at Human liver cathepsin D, the inhibition at 4.15 µg/mL (stock) is 88% and the inhibition at 8.3 µg/mL (stock) was determined as 96%.
At Human liver cathepsin D (50% inhibition of cathepsin D), `CCOc1cc(C=C2SC(=S)N(C)C2=O)cc(CSc2ccccc2)c1O` [Example 73] showed an IC50 of 9.9 µM. Moreover, at Human liver cathepsin D, the inhibition at 4.15 µg/mL (stock) was determined as 69% and the inhibition at 8.3 µg/mL (stock) was 76%.
On Human liver cathepsin D (50% inhibition of cathepsin D), `CCOc1cc(C=C2SC(=S)N(CC(=O)O)C2=O)cc(CSc2ccccc2)c1O` [Example 74, 5-[[3-ethoxy-4-hydroxy-5-(methylthiophenyl)phenyl]methylene]-4-oxo-2-thioxo-3-thiazolidine acetic acid] came in with an IC50 of 5.8 µM. At Human liver cathepsin D, the inhibition at 8.3 µg/mL (stock) is 95% and the “ability to inhibit cathepsin D” value is listed as “surprising ability to inhibit cathepsin D levels”.
On to `O=C1NC(=S)SC1=Cc1cccc2ccccc12` [Example 75, 5-[(1-naphthyl)methylene]-2-thioxo-4-thiazolidinone], for which the inhibition at 10 µg/mL (stock) at Human liver cathepsin D turned out to be 43%.
Consider `CC(=C1SC(=S)NC1=O)c1ccc2ccccc2c1` [Example 76, 5-[(2-naphthyl)methylmethylene]-2-thioxo-4-thiazolidinone], for which the inhibition at 10 µg/mL (stock) at Human liver cathepsin D stood at 32%.
On to `CC(=C1SC(=S)NC1=O)c1cccc(Oc2ccccc2)c1` [Example 78, 5-[(3-phenoxyphenyl)methylmethylene]-2-thioxo-4-thiazolidinone], for which, at Human liver cathepsin D, the IC50 was found to be 22.1 µM and the inhibition at 4.15 µg/mL (stock) turned out to be 41%.
Regarding `CCCCCCCOc1ccc(C=C2SC(=S)N(N)C2=O)cc1OC` [Example 80, 5-[(3-methoxy-4-heptoxyphenyl)methylene]-2-thioxo-3-amino-4-thiazolidinone], at Human liver cathepsin D, the IC50 stood at 47 µM and the inhibition at 8.3 µg/mL (stock) was 33%.
Compound `CN(C)c1ccc(C=C2SC(=S)NC2=O)cc1` [Example 82, 5-[[4-(dimethylamino)phenyl]methylene]-2-thioxo-4-thiazolidinone] yielded an inhibition at 10 µg/mL (stock) on Human liver cathepsin D of 73.5%.
At Human liver cathepsin D, `CCCCCCCOc1ccc(C=C2SC(=S)N(N(C)C)C2=O)cc1` [Example 83, 5-[(4-heptoxyphenyl)methylene]-2-thioxo-3-dimethylamino-4-thiazolidinone] came in with an inhibition at 4.15 µg/mL (stock) of 47%.
Same read-out and setting: to `CCOc1cc(C=C2SC(=S)N(C3CCCCC3)C2=O)ccc1O` [Example 84, 5-[(3-ethoxy-4-hydroxyphenyl)methylene]-2-thioxo-3-cyclohexyl-4-thiazolidinone] belongs 51%.
On to `CN1C(=O)C(=Cc2cc(C(C)(C)C)c(O)c(C(C)(C)C)c2)SC1=S` [Example 85, 5-[[3,5-bis(1,1-dimethylethyl)-4-hydroxyphenyl]methylene]-2-thioxo-3-methyl-4-thiazolidinone], for which the IC50 against Human liver cathepsin D stood at 14.3 µM. That is a double-digit micromolar value.
`CS(=O)(=O)Nc1cccc(C=C2SC(=S)N(CC(=O)O)C2=O)c1` [Example 86, 5-[(3-methanesulfonamidophenyl)methylene]-4-oxo-2-thioxo-3-thiazolidine acetic acid] returned an inhibition at 8.3 µg/mL (stock) on Human liver cathepsin D of 42%.
In the case of `COc1c(C(C)(C)C)cc(C=C2SC(=S)NC2=O)cc1C(C)(C)C` [Example 87, 5-[[3,5-bis(1,1-dimethylethyl)-4-methoxyphenyl]methylene]-2-thioxo-4-thiazolidinone], the IC50 against Human liver cathepsin D stood at 2.2 µM.
In the case of `CCOc1cc(C=C2SC(=S)N(C)C2=O)ccc1O` [Example 88, 5-[(3-ethoxy-4-hydroxyphenyl)methylene]-2-thioxo-3-methyl-4-thiazolidinone], at Human liver cathepsin D, the IC50 is 11.2 µM, the inhibition at 4.15 µg/mL (stock) was 67%, the inhibition at 8.3 µg/mL (stock) stood at 82% and the “ability to inhibit cathepsin D” value is reported as “surprising ability to inhibit cathepsin D levels”.
Compound `CCOc1cc(C=C2SC(=S)N(N(C)C)C2=O)cc(CSc2ccccc2)c1O` [Example 89] displayed an IC50 at Human liver cathepsin D (50% inhibition of cathepsin D) of 9.2 µM. The compound further showed an inhibition at 8.3 µg/mL (stock) against Human liver cathepsin D of 71%.
Regarding `CCOc1cc(C=C2SC(=S)N(N(C)C)C2=O)ccc1O` [Example 90, 5-[(3-ethoxy-4-hydroxyphenyl)methylene]-2-thioxo-3-dimethylamino-4-thiazolidinone], on Human liver cathepsin D, half-maximal inhibition (IC50) required 7.7 µM, the inhibition at 4.15 µg/mL (stock) is 79%, the inhibition at 8.3 µg/mL (stock) is 92% and the “ability to inhibit cathepsin D” value is on record as “surprising ability to inhibit cathepsin D levels”.
With `CCCCCOc1ccc(C=C2SC(=S)N(CC(=O)O)C2=O)cc1OCCCCC` [Example 91, 5-[(3,4-dipentoxyphenyl)methylene]-4-oxo-2-thioxo-3-thiazolidine acetic acid], at Human liver cathepsin D, the IC50 stood at 9.7 µM, the inhibition at 4.15 µg/mL (stock) amounted to 72% and the “ability to inhibit cathepsin D” value was “surprising ability to inhibit cathepsin D levels”.
With `CN1C(=O)C(=Cc2ccc(O)c(C(C)(C)C)c2)SC1=S` [Example 92, 5-[[3-(1,1-dimethylethyl)-4-hydroxyphenyl]methylene]-2-thioxo-3-methyl-4-thiazolidinone], at Human liver cathepsin D, the IC50 came to 3.9 µM, the inhibition at 4.15 µg/mL (stock) was 74% and the “ability to inhibit cathepsin D” value is “surprising ability to inhibit cathepsin D levels”.
Regarding `CCCCCCCOc1ccc(C=C2SC(=S)N(N(C)C)C2=O)cc1OCCCCCCC` [Example 93, 5-[(3,4-diheptoxyphenyl)methylene]-2-thioxo-3-dimethylamino-4-thiazolidinone], the IC50 against Human liver cathepsin D is 7.5 µM.
In turn, `CCCCOc1ccc(C=C2SC(=S)N(N(C)C)C2=O)cc1OCCCC` [Example 94, 5-[(3,4-dibutoxyphenyl)methylene]-2-thioxo-3-dimethylamino-4-thiazolidinone] showed an inhibition at 4.15 µg/mL (stock) against Human liver cathepsin D of 48%.
Regarding `C=CCN1C(=O)C(=Cc2ccc(OCCCCCCC)c(OC)c2)SC1=S` [Example 95, 5-[(3-methoxy-4-heptoxyphenyl)methylene]-2-thioxo-3-(2-propenyl)-4-thiazolidinone], the inhibition at 8.3 µg/mL (stock) on Human liver cathepsin D turned out to be 36%.
